From US20230226062A1, “HETEROCYCLIC COMPOUNDS AS IMMUNOMODULATORS” (Incyte Corporation, priority 2016, published 2023)

molecular target: T1, PD-1/PD-L1 (Homo sapiens, UniProt Q9NZQ7); experiment: PD-1/PD-L1 Homogeneous Time-Resolved Fluorescence (HTRF) binding assay; settings: recombinant human PD-L1 (19-238)-His 10 nM, human PD-1 (25-167)-Fc 3 nM, 25° C., PBS pH 7.4
T1 construct: Recombinant human PD-L1 protein (19-238) with a His-tag at the C-terminus; purchased AcroBiosystems PD1-H5229 (PD-L1); PD1-H5257 (PD-1)
T1 sequence (Q9NZQ7 19-238): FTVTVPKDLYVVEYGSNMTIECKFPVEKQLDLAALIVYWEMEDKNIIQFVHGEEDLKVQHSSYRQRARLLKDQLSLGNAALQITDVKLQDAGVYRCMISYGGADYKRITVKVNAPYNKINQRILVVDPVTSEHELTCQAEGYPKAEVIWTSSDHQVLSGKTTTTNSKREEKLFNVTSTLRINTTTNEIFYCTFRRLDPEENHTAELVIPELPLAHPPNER
Method: Example A. PD-1/PD-L1 Homogeneous Time-Resolved Fluorescence (HTRF) Binding Assay
The assays were conducted in a standard black 384-well polystyrene plate with a final volume of 20 μL. Inhibitors were first serially diluted in DMSO and then added to the plate wells before the addition of other reaction components. The final concentration of DMSO in the assay was 1%. The assays were carried out at 25° C. in the PBS buffer (pH 7.4) with 0.05% Tween-20 and 0.1% BSA. Recombinant human PD-L1 protein (19-238) with a His-tag at the C-terminus was purchased from AcroBiosystems (PD1-H5229). Recombinant human PD-1 protein (25-167) with Fc tag at the C-terminus was also purchased from AcroBiosystems (PD1-H5257). PD-L1 and PD-1 proteins were diluted in the assay buffer and 10 μL was added to the plate well. Plates were centrifuged and proteins were preincubated with inhibitors for 40 minutes. The incubation was followed by the addition of 10 μL of HTRF detection buffer supplemented with Europium cryptate-labeled anti-human IgG (PerkinElmer-AD0212) specific for Fc and anti-His antibody conjugated to SureLight®-Allophycocyanin (APC, PerkinElmer-AD0059H). After centrifugation, the plate was incubated at 25° C. for 60 min. before reading on a PHERAstar FS plate reader (665 nm/620 nm ratio). Final concentrations in the assay were—3 nM PD1, 10 nM PD-L1, 1 nM europium anti-human IgG and 20 nM anti-His-Allophycocyanin. IC50 determination was performed by fitting the curve of percent control activity versus the log of the inhibitor concentration using the GraphPad Prism 5.0 software.

`Cc1c(-c2ccccc2)cccc1N1Cc2ccc(CNCCO)cc2C1` [Example 19, 2-((2-(2-methylbiphenyl-3-yl)isoindolin-5-yl)methylamino)ethanol] and `OCCNCc1ccc(CN2CCc3c(-c4ccccc4)cccc32)c(Cl)c1` [Example 40, 2-({3-chloro-4-[(4-phenyl-2,3-dihydro-1H-indol-1-yl)methyl]benzyl}amino)ethanol] fall in the same range of IC50: 100 to 1000 nM for the first, 100 to 1000 nM for the second.

`Cc1c(-c2ccccc2)cccc1-c1cnc2c(c1)CNCC2` [Example 20, 3-(2-methylbiphenyl-3-yl)-5,6,7,8-tetrahydro-1,6-naphthyridine] and `Cc1c(C2=CCC(N3CCCC3)CC2)cccc1-c1ccccc1` (stereo not shown) [Example 32, 1-(4-(2-methylbiphenyl-3-yl)cyclohex-3-enyl)pyrrolidine] fall in the same range of IC50: 100 to 1000 nM for the first, 100 to 1000 nM for the second.

`Cc1c(-c2ccccc2)ccnc1-c1ccc(CN)cc1` [Example 21, (4-(3-methyl-4-phenylpyridin-2-yl)phenyl)methanamine] and `Cc1c(Nc2nsc3nccnc23)cccc1-c1ccccc1` [Example 25, N-(2-methylbiphenyl-3-yl)isothiazolo[4,5-b]pyrazin-3-amine] fall in the same range of IC50: 100 to 1000 nM for the first, 100 to 1000 nM for the second.

`O[C@H]1CC[C@@H](NCc2ccc(N3CCCC(c4ccccc4)C3)cn2)CC1` (stereo partly drawn) [Example 22, Cis-4-((5-(3-phenylpiperidin-1-yl)pyridin-2-yl)methylamino)cyclohexanol] and `OCC1(CNC2CCN(c3cccc(NCc4ccccc4)c3Cl)CC2)CCC1` [Example 24, (1-((1-(3-(benzylamino)-2-chlorophenyl)piperidin-4-ylamino)methyl)cyclobutyl)methanol] fall in the same range of IC50: 100 to 1000 nM for the first, 100 to 1000 nM for the second.

Compared with `OCC1(CNC2CCN(c3cccc(Nc4ccccc4)c3Cl)CC2)CCC1` [Example 23, (1-((1-(2-chloro-3-(phenylamino)phenyl)piperidin-4-ylamino)methyl)cyclobutyl)methanol], `Cc1c(-c2ccccc2)cccc1N1CCC(CN)CC1` [Example 27, (1-(2-methylbiphenyl-3-yl)piperidin-4-yl)methanamine] is lower in IC50: 1000 to 2000 nM for the first, 100 to 1000 nM for the second.

First: Cc1c(-c2ccccc2)cccc1N1CCC[C@@H](N)C1 [Example 26, (R)-1-(2-methylbiphenyl-3-yl)piperidin-3-amine]
Second: Cc1c(-c2ccccc2)cccc1N1CC[C@H](CN)C1 [Example 29, (R)-(1-(2-methylbiphenyl-3-yl)pyrrolidin-3-yl)methanamine]
The IC50 of the first is lower: 100 to 1000 nM for the first, 1000 to 2000 nM for the second.

`Cc1c(NCC2CCCNC2)cccc1-c1ccccc1` (stereo not shown) [Example 28, 2-methyl-N-(piperidin-3-ylmethyl)biphenyl-3-amine] and `Cc1c(NC(=O)N2CCCC(N)C2)cccc1-c1ccccc1` (stereo not shown) [Example 33, 3-amino-N-(2-methylbiphenyl-3-yl)piperidine-1-carboxamide] fall in the same range of IC50: 1000 to 2000 nM for the first, 1000 to 2000 nM for the second.

`Cc1c(-c2ccccc2)cccc1N1CCC2(CCCC(=O)N2)CC1` [Example 30, 9-(2-methylbiphenyl-3-yl)-1,9-diazaspiro[5.5]undecan-2-one] and `Cc1c(-c2ccccc2)cccc1N1CCC2(CCCCN2)CC1` [Example 31, 9-(2-methylbiphenyl-3-yl)-1,9-diazaspiro[5.5]undecane] fall in the same range of IC50: 100 to 1000 nM for the first, 100 to 1000 nM for the second.

`N#Cc1c(-c2ccccc2)csc1Nc1nccc2cc(CNCCO)cnc12` [Example 34, 2-[(3-{[(2-hydroxyethyl)amino]methyl}-1,7-naphthyridin-8-yl)amino]-4-phenylthiophene-3-carbonitrile] and `COc1cccc(-c2cccc(Nc3ncccc3C(=O)NCCNCCO)c2C)c1F` [Example 39, 2-(2′-fluoro-3′-methoxy-2-methylbiphenyl-3-ylamino)-N-(2-(2-hydroxyethylamino)ethyl)nicotinamide] fall in the same range of IC50: 100 to 1000 nM for the first, 100 to 1000 nM for the second.

First: Cc1c(-c2nc3c(s2)CN(C(=O)CN(C)C)C3)cccc1-c1cccc(-c2nc3c(s2)CN(C(=O)CN2CC[C@@H](O)C2)C3)c1C [Example 35, (R)-2-(dimethylamino)-1-(2-(3′-(5-(2-(3-hydroxypyrrolidin-1-yl)acetyl)-5,6-dihydro-4H-pyrrolo[3,4-d]thiazol-2-yl)-2,2′-dimethylbiphenyl-3-yl)-4H-pyrrolo[3,4-d]thiazol-5(6H)-yl)ethanone]
Second: CCN(C)CC(=O)N1Cc2nc(-c3cccc(-c4cccc(N5CCC6NCCC6C5)c4C)c3C)sc2C1 (stereo not shown) [Example 37, 1-(2-(2,2′-dimethyl-3′-(tetrahydro-1H-pyrrolo[3,2-c]pyridin-5(6H,7H,7aH)-yl)biphenyl-3-yl)-4H-pyrrolo[3,4-d]thiazol-5(6H)-yl)-2-(ethyl(methyl)amino)ethanone]
The IC50 of the first is lower: ≤ 10 nM for the first, 100 to 1000 nM for the second.

`CCN(C)CC(=O)N1Cc2nc(-c3cccc(-c4cccc(C#CC5CCNCC5)c4C)c3C)sc2C1` [Example 36, 1-(2-(2,2′-dimethyl-3′-(piperidin-4-ylethynyl)biphenyl-3-yl)-4H-pyrrolo[3,4-d]thiazol-5(6H)-yl)-2-(ethyl(methyl)amino)ethanone] and `CCN(C)CC(=O)N1Cc2nc(-c3cccc(-c4cccc(N5CCn6cncc6C5)c4C)c3C)sc2C1` [Example 38, 1-(2-(3′-(5,6-dihydroimidazo[1,5-a]pyrazin-7(8H)-yl)-2,2′-dimethylbiphenyl-3-yl)-4H-pyrrolo[3,4-d]thiazol-5(6H)-yl)-2-(ethyl(methyl)amino)ethanone] cannot be ordered by IC50: ≤ 10 nM for the first, 10 to 100 nM for the second.
